ChEMBL document CHEMBL3885881, “DrugMatrix”

Species: Rattus norvegicus
Experiment: DrugMatrix - Regimen: Daily Repeat
Type: toxicity, organism-based, Sprague-Dawley
Design: regimen Daily Repeat, gender Male, age 6-8 weeks
Settings: in vivo, po, route oral GAVAGE; for BASOPHIL / EOSINOPHIL / ERYTHROCYTE COUNT / HEMATOCRIT / LEUKOCYTE COUNT / LYMPHOCYTE / MEAN CORPUSCULAR HEMOGLOBIN / MEAN CORPUSCULAR HEMOGLOBIN CONCENTRATION / MEAN CORPUSCULAR VOLUME / MONOCYTE / NEUTROPHIL / PLATELET COUNT / ABSOLUTE BASOPHIL / ABSOLUTE EOSINOPHIL / ABSOLUTE LYMPHOCYTE / ABSOLUTE MONOCYTE / ABSOLUTE SEGMENTED NEUTROPHIL / HEMOGLOBIN / NUCLEATED RED BLOOD CELLS: tissue Blood; for ALANINE AMINOTRANSFERASE / ALBUMIN / ALKALINE PHOSPHATASE / ASPARTATE AMINOTRANSFERASE / BLOOD UREA NITROGEN / CHLORIDE / CHOLESTEROL / CREATINE PHOSPHOKINASE / CREATININE / GLUCOSE / PHOSPHORUS / POTASSIUM / SODIUM / TOTAL BILIRUBIN / TOTAL PROTEIN / CARBON DIOXIDE / LACTATE DEHYDROGENASE / LIPASE / URIC ACID: tissue Plasma
[1] = 0 mg/kg, 72 h, dose level Control, time 3 day, vehicle .5 % CMC
[2] = 0 mg/kg, 120 h, dose level Control, time 5 day, vehicle .5 % CMC
[3] = 3 mg/kg, 72 h, dose level Low, time 3 day, vehicle .5 % CMC
[4] = 3 mg/kg, 120 h, dose level Low, time 5 day, vehicle .5 % CMC
[5] = 2 mg/kg, 72 h, dose level Low, time 3 day, […]
[6] = 2 mg/kg, 120 h, dose level Low, time 5 day, […]

Compound: NCCCC(O)(P(=O)(O)O)P(=O)(O)O [ALENDRONIC ACID]
- BASOPHIL [1]: 0%
- EOSINOPHIL [1]: 0%
- ERYTHROCYTE COUNT [1]: 6.19 x10E6/uL
- HEMATOCRIT [1]: 36.94%
- LEUKOCYTE COUNT [1]: 11.54 x10E3/uL
- LYMPHOCYTE [1]: 84.8%
- MEAN CORPUSCULAR HEMOGLOBIN [1]: 23.58 pg
- MEAN CORPUSCULAR HEMOGLOBIN CONCENTRATION [1]: 39.44 G/DL
- MEAN CORPUSCULAR VOLUME [1]: 59.76 fL
- MONOCYTE [1]: 1.4%
- NEUTROPHIL [1]: 13.8%
- PLATELET COUNT [1]: 1068.8 x10E3/uL
- ALANINE AMINOTRANSFERASE [1]: 38.17 u/L
- ALBUMIN [1]: 3.88 G/DL
- ALKALINE PHOSPHATASE [1]: 391.33 u/L
- ASPARTATE AMINOTRANSFERASE [1]: 69.83 u/L
- BLOOD UREA NITROGEN [1]: 15 mg/dL
- CHLORIDE [1]: 104.17 MEQ/L
- CHOLESTEROL [1]: 72.17 mg/dL
- CREATINE PHOSPHOKINASE [1]: 174.33 u/L
- CREATININE [1]: 0.58 mg/dL
- GLUCOSE [1]: 192.67 mg/dL
- PHOSPHORUS [1]: 10.52 mg/dL
- POTASSIUM [1]: 6.8 MEQ/L
- SODIUM [1]: 149.67 MEQ/L
- TOTAL BILIRUBIN [1]: 0.78 mg/dL
- TOTAL PROTEIN [1]: 6.28 G/DL
- BASOPHIL [2]: 0%
- EOSINOPHIL [2]: 0.17%
- ERYTHROCYTE COUNT [2]: 6.72 x10E6/uL
- HEMATOCRIT [2]: 40.02%
- LEUKOCYTE COUNT [2]: 9.5 x10E3/uL
- LYMPHOCYTE [2]: 87.17%
- MEAN CORPUSCULAR HEMOGLOBIN [2]: 23.57 pg
- MEAN CORPUSCULAR HEMOGLOBIN CONCENTRATION [2]: 39.62 G/DL
- MEAN CORPUSCULAR VOLUME [2]: 59.55 fL
- MONOCYTE [2]: 1.67%
- NEUTROPHIL [2]: 11%
- PLATELET COUNT [2]: 1053.67 x10E3/uL
- ALANINE AMINOTRANSFERASE [2]: 26.33 u/L
- ALBUMIN [2]: 4.02 G/DL
- ALKALINE PHOSPHATASE [2]: 316.67 u/L
- ASPARTATE AMINOTRANSFERASE [2]: 61.33 u/L
- BLOOD UREA NITROGEN [2]: 18.67 mg/dL
- CHLORIDE [2]: 108 MEQ/L
- CHOLESTEROL [2]: 65.17 mg/dL
- CREATINE PHOSPHOKINASE [2]: 161.17 u/L
- CREATININE [2]: 0.75 mg/dL
- GLUCOSE [2]: 177.33 mg/dL
- PHOSPHORUS [2]: 9.72 mg/dL
- POTASSIUM [2]: 6.18 MEQ/L
- SODIUM [2]: 150.5 MEQ/L
- TOTAL BILIRUBIN [2]: 0.68 mg/dL
- TOTAL PROTEIN [2]: 6.55 G/DL
- BASOPHIL [3]: 0%
- EOSINOPHIL [3]: 0%
- ERYTHROCYTE COUNT [3]: 5.67 x10E6/uL
- HEMATOCRIT [3]: 34.63%
- LEUKOCYTE COUNT [3]: 9.73 x10E3/uL
- LYMPHOCYTE [3]: 86.33%
- MEAN CORPUSCULAR HEMOGLOBIN [3]: 24.23 pg
- MEAN CORPUSCULAR HEMOGLOBIN CONCENTRATION [3]: 39.67 G/DL
- MEAN CORPUSCULAR VOLUME [3]: 61.13 fL
- MONOCYTE [3]: 1.33%
- NEUTROPHIL [3]: 12.33%
- PLATELET COUNT [3]: 1035.67 x10E3/uL
- ALANINE AMINOTRANSFERASE [3]: 34 u/L
- ALBUMIN [3]: 3.77 G/DL
- ALKALINE PHOSPHATASE [3]: 322.33 u/L
- ASPARTATE AMINOTRANSFERASE [3]: 69 u/L
- BLOOD UREA NITROGEN [3]: 16 mg/dL
- CHLORIDE [3]: 105.67 MEQ/L
- CHOLESTEROL [3]: 63 mg/dL
- CREATINE PHOSPHOKINASE [3]: 139.33 u/L
- CREATININE [3]: 0.6 mg/dL
- GLUCOSE [3]: 171 mg/dL
- PHOSPHORUS [3]: 10.3 mg/dL
- POTASSIUM [3]: 6.6 MEQ/L
- SODIUM [3]: 150 MEQ/L
- TOTAL BILIRUBIN [3]: 0.57 mg/dL
- TOTAL PROTEIN [3]: 5.97 G/DL
- BASOPHIL [4]: 0%
- EOSINOPHIL [4]: 0.67%
- ERYTHROCYTE COUNT [4]: 6.7 x10E6/uL
- HEMATOCRIT [4]: 40.67%
- LEUKOCYTE COUNT [4]: 10.57 x10E3/uL
- LYMPHOCYTE [4]: 75%
- MEAN CORPUSCULAR HEMOGLOBIN [4]: 24.1 pg
- MEAN CORPUSCULAR HEMOGLOBIN CONCENTRATION [4]: 39.7 G/DL
- MEAN CORPUSCULAR VOLUME [4]: 60.77 fL
- MONOCYTE [4]: 3%
- NEUTROPHIL [4]: 21.33%
- PLATELET COUNT [4]: 904.33 x10E3/uL
- ALANINE AMINOTRANSFERASE [4]: 30.67 u/L
- ALBUMIN [4]: 4.1 G/DL
- ALKALINE PHOSPHATASE [4]: 352.33 u/L
- ASPARTATE AMINOTRANSFERASE [4]: 64 u/L
- BLOOD UREA NITROGEN [4]: 14.67 mg/dL
- CHLORIDE [4]: 106 MEQ/L
- CHOLESTEROL [4]: 64.33 mg/dL
- CREATINE PHOSPHOKINASE [4]: 130.33 u/L
- CREATININE [4]: 0.77 mg/dL
- GLUCOSE [4]: 191 mg/dL
- PHOSPHORUS [4]: 10.83 mg/dL
- POTASSIUM [4]: 6.4 MEQ/L
- SODIUM [4]: 150.67 MEQ/L
- TOTAL BILIRUBIN [4]: 0.83 mg/dL
- TOTAL PROTEIN [4]: 6.73 G/DL

Compound: Cc1nnc2n1-c1ccc(Cl)cc1C(c1ccccc1)=NC2 [ALPRAZOLAM]
- ABSOLUTE BASOPHIL [5]: 0 CELLS/uL
- ABSOLUTE EOSINOPHIL [5]: 40.33 CELLS/uL
- ABSOLUTE LYMPHOCYTE [5]: 13483.67 CELLS/uL
- ABSOLUTE MONOCYTE [5]: 168.67 CELLS/uL
- ABSOLUTE SEGMENTED NEUTROPHIL [5]: 1074 CELLS/uL
- BASOPHIL [5]: 0%
- EOSINOPHIL [5]: 0.33%
- ERYTHROCYTE COUNT [5]: 5.44 x10E6/uL
- HEMATOCRIT [5]: 34.8%
- HEMOGLOBIN [5]: 13.4 G/DL
- LEUKOCYTE COUNT [5]: 14.77 x10E3/uL
- LYMPHOCYTE [5]: 91%
- MEAN CORPUSCULAR HEMOGLOBIN [5]: 24.7 pg
- MEAN CORPUSCULAR HEMOGLOBIN CONCENTRATION [5]: 38.5 G/DL
- MEAN CORPUSCULAR VOLUME [5]: 64.17 fL
- MONOCYTE [5]: 1.33%
- NEUTROPHIL [5]: 7.33%
- NUCLEATED RED BLOOD CELLS [5]: 0 /100WBC
- PLATELET COUNT [5]: 1211 x10E3/uL
- ALANINE AMINOTRANSFERASE [5]: 78.67 u/L
- ALBUMIN [5]: 4.13 G/DL
- ALKALINE PHOSPHATASE [5]: 386.33 u/L
- ASPARTATE AMINOTRANSFERASE [5]: 99 u/L
- BLOOD UREA NITROGEN [5]: 15 mg/dL
- CARBON DIOXIDE [5]: 27 mmol/L
- CHLORIDE [5]: 99 MEQ/L
- CHOLESTEROL [5]: 68.67 mg/dL
- CREATINE PHOSPHOKINASE [5]: 276 u/L
- CREATININE [5]: 0.2 mg/dL
- GLUCOSE [5]: 160.33 mg/dL
- LACTATE DEHYDROGENASE [5]: 401.67 u/L
- LIPASE [5]: 10.33 u/L
- PHOSPHORUS [5]: 13.67 mg/dL
- POTASSIUM [5]: 7.37 MEQ/L
- SODIUM [5]: 142.63 MEQ/L
- TOTAL BILIRUBIN [5]: 0.23 mg/dL
- TOTAL PROTEIN [5]: 5.63 G/DL
- URIC ACID [5]: 1.7 mg/dL
- ABSOLUTE BASOPHIL [6]: 0 CELLS/uL
- ABSOLUTE EOSINOPHIL [6]: 0 CELLS/uL
- ABSOLUTE LYMPHOCYTE [6]: 13775.33 CELLS/uL
- ABSOLUTE MONOCYTE [6]: 53.67 CELLS/uL
- ABSOLUTE SEGMENTED NEUTROPHIL [6]: 1637.67 CELLS/uL
- BASOPHIL [6]: 0%
- EOSINOPHIL [6]: 0%
- ERYTHROCYTE COUNT [6]: 5.79 x10E6/uL
- HEMATOCRIT [6]: 35.1%
- HEMOGLOBIN [6]: 13.93 G/DL
- LEUKOCYTE COUNT [6]: 15.47 x10E3/uL
- LYMPHOCYTE [6]: 89%
- MEAN CORPUSCULAR HEMOGLOBIN [6]: 24.07 pg
- MEAN CORPUSCULAR HEMOGLOBIN CONCENTRATION [6]: 39.7 G/DL
- MEAN CORPUSCULAR VOLUME [6]: 60.57 fL
- MONOCYTE [6]: 0.33%
- NEUTROPHIL [6]: 10.67%
- NUCLEATED RED BLOOD CELLS [6]: 0 /100WBC
- PLATELET COUNT [6]: 1214.33 x10E3/uL
- ALANINE AMINOTRANSFERASE [6]: 67 u/L
- ALBUMIN [6]: 4 G/DL
- ALKALINE PHOSPHATASE [6]: 343.67 u/L
- ASPARTATE AMINOTRANSFERASE [6]: 109.67 u/L
- BLOOD UREA NITROGEN [6]: 15 mg/dL
- CARBON DIOXIDE [6]: 27 mmol/L
- CHLORIDE [6]: 101 MEQ/L
- CHOLESTEROL [6]: 81.67 mg/dL
- CREATINE PHOSPHOKINASE [6]: 429 u/L
- CREATININE [6]: 0.19 mg/dL
- GLUCOSE [6]: 142.33 mg/dL
- LACTATE DEHYDROGENASE [6]: 632 u/L
- LIPASE [6]: 10.67 u/L
- PHOSPHORUS [6]: 11.1 mg/dL
- POTASSIUM [6]: 5.98 MEQ/L
- SODIUM [6]: 144.97 MEQ/L
- TOTAL BILIRUBIN [6]: 0.13 mg/dL
- TOTAL PROTEIN [6]: 5.63 G/DL
- URIC ACID [6]: 1.63 mg/dL
